Data published in patent publication US7585517B2, “Transscleral delivery” (Macusight, Inc., priority 2003, dated 2009).
Where two headings read alike, the source gives them in different places.

What was measured:
laser induced CNV [1] = assay: Reversal of laser induced CNV by periocular rapamycin (Example 2); type: in vivo; conditions: mice; daily periocular 5 μg in 5 μl corn oil started one week after laser, for one week; SD 0.0053
Procedure: Fifteen mice had Bruch's membrane ruptured with laser photocoagulation at 3 locations in each eye. After one week, 5 mice were perfused with fluorescein-labeled dextran and the baseline area of CNV was measured in each eye. At that point, the remaining mice were started on daily periocular injections of 5 μl of corn oil containing 5 μg of rapamycin in one eye and corn oil alone in the fellow eye. After one more week, the mice were perfused with fluorescein-labeled dextran and CNV areas were measured in each eye on choroidal flat mounts. The corn oil solution used is approximately a saturated solution. It is expected that lower doses will be used to deliver therapeutically effective amounts of rapamycin.
Baseline lesion CNV area was 0.0105 mm^2 with a standard deviation of 0.0037.

human sclera = assay: Two chamber Ussing type permeability apparatus, transscleral rapamycin delivery; type: in vitro ADME; conditions: for rapamycin held by the sclera at the conclusion of the experiment: 36 hours; for total rapamycin recovered from the uveal chamber: in 36 hours
Procedure: (§1) Prior to testing of sclera, loss of therapeutic agent to the glass walls of the experimental apparatus was evaluated. For the evaluation of loss of drug to the experimental apparatus, the uveal and orbital chambers were exposed to a 2 μg/mL rapamycin solution in balanced salt solution.
(§2) A 7 mm disk of fresh donor human sclera was used to separate the two chambers of the Ussing permeability apparatus. The two sides of the sclera were denoted “orbital” to represent the outer surface and “uveal” to represent the internal surface. […] Thus, in order to grossly replicate a scleral depot delivery system, the hydrophobic therapeutic agent solvents were diluted to 5% concentration in balanced salt solution (BSS) with dissolved rapamycin to form a roughly 100 μg per ml orbital chamber solution. In this example, the chamber on the orbital surface side contained a reservoir of 200 μl of rapamycin dissolved in 5% DMSO in BSS at an expected concentration of 100 μg per milliliter. The 500 μl uveal chamber was continually perfused at 0.0075 milliliter per minute and samples were collected by a fractionater in Eppendorf tubes every 4 hours. The experiment was run for 36 hours.
(§3) At the peak concentrations in the uveal chamber (250 ng/ml), rapamycin will fully dissolve in vitreous. Because the amount of therapeutic agent in the orbital chamber was declining, the steady state was estimated by the highest flux. […] A permeability coefficient (K) was calculated as:
(§4) [formula] ΔC represents the increase in concentration the compound in the uveal chamber (0.250 micrograms/ml) that occurs over the interval t, in seconds ([…]). V is the chamber volume (1.8 milliliter). A represents the exposed area of the tissue (0.385 cm^2). C0 is the initial concentration of the compound in the orbital chamber (92 microgram/ml). Calculated in this manner, the permeability coefficient, K, has the dimensions of cm/s. KTRANS thus expresses the rate at which a given solute traverses the tissue. (Advanced Therapeutic agent Delivery Reviews 52 (2001) 37-48 by Dale Geroski and Hank Edelhauser, which is incorporated herein by reference in its entirety). For this experiment KTRANS was roughly 8.82×10^−6 cm/sec, which was on the order of predictions based on MW. Comparatively, when evaluating the KTRANS of dexamethasone, which is smaller than rapamycin, and adjusting for a lower solubility, the figures for rapamycin are also in the appropriate predicted ranges. It is expected that as the external concentration of rapamycin is raised, the flux will increase. Under the ex-vivo conditions of this example, rapamycin can be delivered in the single digit micrograms per day to the vitreous. Such rates are consistent with therapeutic local tissue levels and support that rapamycin is a viable therapeutic agent for transscleral delivery to the posterior segment for vitreoretinal disease. Transscleral Rapamycin Delivery—Methanol Solution
(§5) The above procedure was followed with the exception that rapamycin was dissolved in 5% methanol in BSS. The time profile of the concentration of rapamycin in the uveal chamber is depicted in FIG. 3 (circles). The peak concentration in the uveal chamber was 271 ng/ml at t=12 to 16 hours. The total amount of rapamycin accumulated on the uveal side of the sclera is depicted as function of time in FIG. 4 (squares). The total rapamycin recovered from the uveal chamber was 3.44 micrograms in 36 hours.

[2] = as above; type: in vitro ADME, human; conditions: human
Procedure: as §1, §2, §3, §4, §5

laser induced CNV [3] = assay: Inhibition of laser induced CNV by periocular rapamycin (Example 1); type: in vivo; conditions: mice; daily periocular injections of 5 micrograms in corn oil, begun two days before laser rupture; two weeks after laser; SD 0.00197
Procedure: (§6) CNV may be induced by rupturing Bruch's membrane with laser. Fifteen mice were given daily periocular injections of 5 micrograms of rapamycin in corn oil vehicle in one eye. After two days of treatment, Bruch's membrane was ruptured by laser at three sites in each eye. The fellow eye served as control and was treated with periocular injections of corn oil only. Two weeks after laser rupture, 10 mice were perfused with fluorescein-labeled dextran and CNV areas were measured in each eye on choroidal flat mounts. The remaining mice had retinas and RPE/choroid dissected and stored at −70° C. for tissue therapeutic agents level measurement.

[4] = Retinal tissue and blood levels of rapamycin after periocular injection (HPLC/MS); type: in vivo; conditions: mice
Procedure: as §6

Solubility of rapamycin = type: physicochemical

## CO[C@H]1C[C@@H]2CC[C@@H](C)[C@@](O)(O2)C(=O)C(=O)N2CCCC[C@H]2C(=O)O[C@H]([C@H](C)C[C@@H]2CC[C@@H](O)[C@H](OC)C2)CC(=O)[C@H](C)/C=C(\C)[C@@H](O)[C@@H](OC)C(=O)[C@H](C)C[C@H](C)/C=C/C=C/C=C/1C [rapamycin]
Laser induced CNV [1]
  CNV area, treated eyes: 0.00458 mm^2
Human sclera; 5% DMSO in BSS
  time of peak concentration in the uveal chamber: 8 to 12 h
  rapamycin held by the sclera at the conclusion of the experiment: 0.57 micrograms
  total rapamycin recovered from the uveal chamber: 2.67 micrograms
Human sclera; 5% DMSO in BSS, about 100 μg per ml orbital chamber
  peak concentration in the uveal chamber: 250 ng/mL
Human sclera; 5% DMSO in BSS, taken as estimate of steady state
  highest flux: 9.35 micrograms per square centimeter per day
Human sclera; 5% methanol in BSS
  peak concentration in the uveal chamber: 271 ng/mL
  time of peak concentration in the uveal chamber: 12 to 16 h
  rapamycin held by the sclera at the conclusion of the experiment: 0.41 micrograms
  total rapamycin recovered from the uveal chamber: 3.44 micrograms
[2]; 5% DMSO in BSS, read-out: permeability coefficient KTRANS
  Papp at 36 h, 92 μg/mL: ~8.82 ×10⁻⁶ cm/s
[2]; 5% methanol in BSS, read-out: permeability coefficient KTRANS
  Papp at 36 h, 100 μg/mL: 9.56 ×10⁻⁶ cm/s
[2]; ex-vivo human scleral tissue, order of magnitude, summary of Example 3, read-out: permeability of human sclera to rapamycin
  Papp at 36 h, 100 μg/mL: ~10 ×10⁻⁶ cm/s
Laser induced CNV [3]
  mean CNV area, rapamycin treated eyes: 0.00381 mm^2
[4]; periocular 5 μg per day
  rapamycin blood levels: 5.57 nanograms per milligram blood
[4]; periocular 5 μg per day, HPLC/MS
  retinal tissue levels of rapamycin, treated eyes: 25 picograms per milligram tissue
[4]; untreated fellow eye of animals given periocular 5 μg per day in the other eye
  retinal tissue levels of rapamycin, fellow control eyes: 7 picograms per milligram tissue
Solubility of rapamycin
  solubility in aqueous solutions: poorly soluble
